These compounds were tested against T1, hFXR (Homo sapiens, UniProt Q96RI1) (assay: In Vitro FXR Assay (TK): TK-ECRE-luc reporter in transfected CV-1 cells). Details: 18 hrs, luminescence, maximum efficacy of <25% of the Fexarmine control classified as '+'.
T1 construct: expressed in transfected cells; host or cells: CV-1 cells
T1 sequence (Q96RI1 1-486): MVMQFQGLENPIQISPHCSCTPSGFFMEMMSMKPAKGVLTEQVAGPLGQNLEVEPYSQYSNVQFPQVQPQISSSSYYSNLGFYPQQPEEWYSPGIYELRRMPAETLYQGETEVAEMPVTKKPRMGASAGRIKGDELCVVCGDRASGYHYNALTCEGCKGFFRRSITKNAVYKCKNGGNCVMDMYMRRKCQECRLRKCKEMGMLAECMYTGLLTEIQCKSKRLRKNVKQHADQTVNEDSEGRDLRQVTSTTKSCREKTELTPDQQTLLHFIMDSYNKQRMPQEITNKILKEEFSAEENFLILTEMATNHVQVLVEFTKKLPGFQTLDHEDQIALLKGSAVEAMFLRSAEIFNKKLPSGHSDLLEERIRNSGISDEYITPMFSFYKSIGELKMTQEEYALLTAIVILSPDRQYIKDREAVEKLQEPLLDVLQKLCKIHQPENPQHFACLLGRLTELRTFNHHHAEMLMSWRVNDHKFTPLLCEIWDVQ
T1 sequence (P19793 1-462 partner): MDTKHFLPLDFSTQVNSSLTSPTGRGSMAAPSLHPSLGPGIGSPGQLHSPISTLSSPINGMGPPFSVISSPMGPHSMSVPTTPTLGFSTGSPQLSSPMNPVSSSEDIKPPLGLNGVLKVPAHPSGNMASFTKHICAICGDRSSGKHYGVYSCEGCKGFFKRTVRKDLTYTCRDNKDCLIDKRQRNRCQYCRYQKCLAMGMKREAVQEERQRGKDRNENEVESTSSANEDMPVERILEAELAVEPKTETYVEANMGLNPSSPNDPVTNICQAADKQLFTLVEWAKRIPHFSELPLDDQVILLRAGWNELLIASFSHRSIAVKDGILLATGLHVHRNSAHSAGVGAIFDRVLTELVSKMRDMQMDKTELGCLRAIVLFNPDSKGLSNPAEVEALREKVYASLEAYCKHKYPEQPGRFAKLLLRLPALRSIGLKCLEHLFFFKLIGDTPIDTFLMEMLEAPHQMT
Type: cell-based
In short: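 Transiently transfected monkey CV-1 cells (hFXR, hRXR, TK-ECRE-luciferase, YFP control plasmid), held in stripped-serum DMEM, received compound dilutions from DMSO for 18 h at 37 °C. Activity was taken from luminescence of the cell lysates.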

EC50	SMILES
≤ 250 nM	CNC(=O)O[C@H]1CC[C@H](C(=O)N(C[C@H]2CC[C@H](c3ccc(OC)c(C)n3)CC2)c2cccc(-c3cnn(C4CC4)c3)c2)CC1 [Compound 3.02, trans-4-((3-(1-Cyclopropyl-1H-pyrazol-4-yl)phenyl)((trans-4-(5-methoxy-6-methylpyridin-2-yl)cyclohexyl)methyl)carbamoyl)cyclohexyl methylcarbamate]
≤ 250 nM	CCc1nc(-c2ccnc(N(C[C@H]3CC[C@H](c4ccc(OC)c(C)n4)CC3)C(=O)[C@H]3CC[C@H](OC(=O)NC)CC3)c2)co1 [Compound 5.51, trans-4-((4-(2-Ethyloxazol-4-yl)pyridin-2-yl)((trans-4-(5-methoxy-6-methylpyridin-2-yl)cyclohexyl)methyl)carbamoyl)cyclohexyl methylcarbamate]
≤ 250 nM	COc1ccc([C@H]2CC[C@H](CN(c3cc(-c4cnn(C5CC5)c4)ccn3)C(=O)[C@H]3CC[C@H](OC(=O)NCCO)CC3)CC2)cc1C#N [Compound 6.21, trans-4-(((trans-4-(3-Cyano-4-methoxyphenyl)cyclohexyl)methyl)(4-(1-cyclopropyl-1H-pyrazol-4-yl)pyridin-2-yl)carbamoyl)cyclohexyl (2-hydroxyethyl)carbamate]
≤ 250 nM	COc1ccc([C@H]2CC[C@H](CN(c3cccc(-c4cnn(C(C)C)c4)c3)C(=O)[C@H]3CC[C@H](OC(=O)N4CCN(C)CC4)CC3)CC2)nc1C [Compound 6.44, trans-4-((3-(1-Isopropyl-1H-pyrazol-4-yl)phenyl)((trans-4-(5-methoxy-6-methylpyridin-2-yl)cyclohexyl)methyl)carbamoyl)cyclohexyl 4-methylpiperazine-1-carboxylate]
≤ 250 nM	COc1ccc([C@H]2CC[C@H](CN(c3cc(-c4cnn(C(C)C)c4)ccn3)C(=O)[C@H]3CC[C@H](OC(=O)N4CCN(C)CC4)CC3)CC2)nc1C [Compound 6.41, trans-4-((4-(1-Isopropyl-1H-pyrazol-4-yl)pyridin-2-yl)((trans-4-(5-methoxy-6-methylpyridin-2-yl)cyclohexyl)methyl)carbamoyl)cyclohexyl 4-methylpiperazine-1-carboxylate]
≤ 250 nM	COc1ccc([C@H]2CC[C@H](CN(c3cc(-c4coc(C5CC5)n4)ccn3)C(=O)[C@H]3CC[C@H](OC(=O)NCC(C)(C)O)CC3)CC2)nc1C [Compound 6.70, trans-4-((4-(2-Cyclopropyloxazol-4-yl)pyridin-2-yl)((trans-4-(5-methoxy-6-methylpyridin-2-yl)cyclohexyl)methyl)carbamoyl)cyclohexyl (2-hydroxy-2-methylpropyl)carbamate]
≤ 250 nM	COc1ccc([C@H]2CC[C@H](CN(c3cc(-c4cnn(C(C)C)c4)ccn3)C(=O)[C@H]3CC[C@H](OC(=O)N4CC(S(C)(=O)=O)C4)CC3)CC2)cc1C#N [Compound 6.36, trans-4-(((trans-4-(3-Cyano-4-methoxyphenyl)cyclohexyl)methyl)(4-(1-isopropyl-1H-pyrazol-4-yl)pyridin-2-yl)carbamoyl)cyclohexyl 3-(methylsulfonyl)azetidine-1-carboxylate]
≤ 250 nM	COc1ccc([C@H]2CC[C@H](CN(c3cc(-c4coc(C5CC5)n4)ccn3)C(=O)[C@H]3CC[C@H](CC(=O)O)CC3)CC2)cc1C [Compound 21.01, 2-(trans-4-((4-(2-Cyclopropyloxazol-4-yl)pyridin-2-yl)((trans-4-(4-methoxy-3-methylphenyl)cyclohexyl)methyl)carbamoyl)cyclohexyl)acetic acid]
≤ 250 nM	COc1ccc([C@H]2CC[C@H](CN(c3cccc(-c4cnn(C5CC5)c4)c3)C(=O)[C@H]3CC[C@H](OC(=O)N4CC(O)C4)CC3)CC2)nc1C#N [Compound 7.33, trans-4-(((trans-4-(6-Cyano-5-methoxypyridin-2-yl)cyclohexyl)methyl)(3-(1-cyclopropyl-1H-pyrazol-4-yl)phenyl)carbamoyl) cyclohexyl 3-hydroxyazetidine-1-carboxylate]
≤ 250 nM	COc1ccc([C@H]2CC[C@H](CN(c3cccc(-c4cnn(C(C)C)c4)c3)C(=O)[C@H]3CC[C@H](OC(=O)NCCCO)CC3)CC2)nc1C [Compound 6.16, trans-4-((3-(1-Isopropyl-1H-pyrazol-4-yl)phenyl)((trans-4-(5-methoxy-6-methylpyridin-2-yl)cyclohexyl)methyl)carbamoyl)cyclohexyl (3-hydroxypropyl)carbamate]
≤ 250 nM	COc1ccc([C@H]2CC[C@H](CN(c3cccc(-c4cnn(C(C)C)c4)c3)C(=O)[C@H]3CC[C@H](OCC(=O)O)CC3)CC2)cc1C [Compound 12, 2-((trans-4-((3-(1-Isopropyl-1H-pyrazol-4-yl)phenyl)((trans-4-(4-methoxy-3-methylphenyl)cyclohexyl)methyl)carbamoyl)cyclohexyl)oxy)acetic acid]
≥ 1000 nM	COc1ccc(CO[C@H]2CC[C@H](C(=O)N(C[C@H]3CC[C@H](c4ccc(OC)c(C)c4)CC3)c3cccc(-c4cnc(OC)s4)c3)CC2)cc1 [Compound 18.12, trans-N-((trans-4-(4-Methoxy-3-methylphenyl)cyclohexyl)methyl)-4-((4-methoxybenzyl)oxy)-N-(3-(2-methoxythiazol-5-yl)phenyl) cyclohexanecarboxamide]
≤ 250 nM	CNC(=O)O[C@H]1CC[C@H](C(=O)N(C[C@H]2CC[C@H](c3cnc(OC)c(C)c3)CC2)c2cccc(-c3cnn(C4CC4)c3)c2)CC1 [Compound 5.16, trans-4-((3-(1-Cyclopropyl-1H-pyrazol-4-yl)phenyl)((trans-4-(6-methoxy-5-methylpyridin-3-yl)cyclohexyl)methyl)carbamoyl)cyclohexyl methylcarbamate]
≤ 250 nM	COc1ccc([C@H]2CC[C@H](CN(c3cccc(-c4cnc(C(C)C)s4)c3)C(=O)[C@H]3CC[C@H](OC(=O)N4CC(O)C4)CC3)CC2)nc1C [Compound 7.05, trans-4-((3-(2-Isopropylthiazol-5-yl)phenyl)((trans-4-(5-methoxy-6-methylpyridin-2-yl)cyclohexyl)methyl)carbamoyl)cyclohexyl 3-hydroxyazetidine-1-carboxylate]
≤ 250 nM	COc1ccc([C@H]2CC[C@H](CN(c3cc(-c4coc(C5CC5)n4)ccn3)C(=O)[C@H]3CC[C@H](OC(=O)N[C@@H](C)CO)CC3)CC2)nc1C [Compound 6.93, trans-4-((4-(2-Cyclopropyloxazol-4-yl)pyridin-2-yl)((trans-4-(5-methoxy-6-methylpyridin-2-yl)cyclohexyl)methyl)carbamoyl)cyclohexyl ((S)-1-hydroxypropan-2-yl)carbamate]
≤ 250 nM	COc1ccc([C@H]2CC[C@H](CN(c3cc(-c4coc(C5CC5)n4)ccn3)C(=O)[C@H]3CC[C@H](NC(=O)CO)CC3)CC2)cc1C [Compound 26.18, trans-N-(4-(2-Cyclopropyloxazol-4-yl)pyridin-2-yl)-4-(2-hydroxyacetamido)-N-((trans-4-(4-methoxy-3-methylphenyl)cyclohexyl)methyl) cyclohexanecarboxamide]
≤ 250 nM	COc1ccc([C@H]2CC[C@H](CN(c3cc(-c4coc(C5CC5)n4)ccn3)C(=O)[C@H]3CC[C@H](OC(=O)N4CC(O)C4)CC3)CC2)cc1C#N [Compound 7.69, trans-4-(((trans-4-(3-Cyano-4-methoxyphenyl)cyclohexyl)methyl)(4-(2-cyclopropyloxazol-4-yl)pyridine-2-yl)carbamoyl)cyclohexyl 3-hydroxyazetidine-1-carboxylate]

From patent US20220089575A1, “FARNESOID X RECEPTOR AGONISTS AND USES THEREOF” (Metacrine, Inc., priority 2017, published 2022)
